Assay results as given in publication PMC9867533, “A New Anticancer Semisynthetic Theobromine Derivative Targeting EGFR Protein: CADDD Study” (Life, 2023).

Target: EGFR^WT (Homo sapiens, UniProt P00533)
Test: in vitro EGFR kinase inhibition assay (human EGFR ELISA kit)
Format: biochemical

Sequence of EGFR^WT (P00533 25-1210): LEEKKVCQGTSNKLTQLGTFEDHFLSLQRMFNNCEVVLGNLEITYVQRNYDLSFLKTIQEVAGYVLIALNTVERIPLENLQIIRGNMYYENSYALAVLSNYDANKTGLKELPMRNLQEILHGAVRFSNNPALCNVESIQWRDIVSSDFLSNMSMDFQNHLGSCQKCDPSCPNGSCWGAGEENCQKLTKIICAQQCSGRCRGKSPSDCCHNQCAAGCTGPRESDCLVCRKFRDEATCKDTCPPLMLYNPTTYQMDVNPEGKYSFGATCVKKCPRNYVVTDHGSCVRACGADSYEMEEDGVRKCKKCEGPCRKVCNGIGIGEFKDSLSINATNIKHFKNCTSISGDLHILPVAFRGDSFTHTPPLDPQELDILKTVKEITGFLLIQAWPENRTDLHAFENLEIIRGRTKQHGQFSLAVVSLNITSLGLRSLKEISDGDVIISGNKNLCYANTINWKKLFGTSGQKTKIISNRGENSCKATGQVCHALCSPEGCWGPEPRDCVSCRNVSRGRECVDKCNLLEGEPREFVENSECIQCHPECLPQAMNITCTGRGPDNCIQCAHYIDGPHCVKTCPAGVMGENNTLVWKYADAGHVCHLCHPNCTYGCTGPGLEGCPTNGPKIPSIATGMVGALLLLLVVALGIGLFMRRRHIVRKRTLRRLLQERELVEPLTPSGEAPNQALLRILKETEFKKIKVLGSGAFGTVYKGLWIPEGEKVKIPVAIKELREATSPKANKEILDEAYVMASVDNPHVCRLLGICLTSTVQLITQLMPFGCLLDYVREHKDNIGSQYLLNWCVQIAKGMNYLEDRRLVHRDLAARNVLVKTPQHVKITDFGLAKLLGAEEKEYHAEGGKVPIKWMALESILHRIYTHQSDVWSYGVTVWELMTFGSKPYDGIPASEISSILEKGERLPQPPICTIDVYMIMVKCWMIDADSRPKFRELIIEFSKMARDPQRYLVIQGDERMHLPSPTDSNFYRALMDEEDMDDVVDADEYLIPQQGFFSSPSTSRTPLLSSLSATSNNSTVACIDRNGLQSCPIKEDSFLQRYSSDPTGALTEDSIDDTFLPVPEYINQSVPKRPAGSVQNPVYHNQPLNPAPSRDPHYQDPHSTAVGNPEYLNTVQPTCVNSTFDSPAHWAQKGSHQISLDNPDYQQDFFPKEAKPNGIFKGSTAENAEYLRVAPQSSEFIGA

`Cn1cnc2c1c(=O)n(CC(=O)Nc1ccc(Cl)cc1)c(=O)n2C` [T-1-PCPA, N-(4-Chlorophenyl)-2-(3,7-dimethyl-2,6-dioxo-2,3,6,7-tetrahydro-1H-purin-1-yl)acetamide] was tested, and the IC50 was 25.4 nM.
